Data set [1] has as its system WCRW. Put plainly: Small scale (green house 10 inch pot) in-furrow assay and dose-response. The format is in vivo, western corn rootworm (WCRW). The following applies: 2 mg/ml DE, in-furrow 3 ml, day 28. The protocol: Jumbo cotton balls were packed into the bottom of 10″ tall and 2.7″ diameter cylindrical containers. Wide straws were inserted for later use during the infestation process, then packed with ~660 g of silt loam soil. Soil was then watered with about 150 ml of water in three 50 ml increments 24 hrs before planting. A hole was made at a depth of 1.5 inch from the top of the soil. […] The particle size, PDI and zeta potential of these NLPs are similar to those prepared with 80 ug/ml of DE in the suspension (Table 8). The treatments were added around the edge of the hole for planting. A seed was then planted in the hole and covered with soil. Containers with seeds were then placed in the greenhouse to continue growing for 7 days until ready for infestation.
2nd instar WCRW larvae were shipped from the supplier (Crop Characteristic Inc., Farmington, MN USA) and stored at 10° C. until ready for use (less than a week). The 1st and 2nd infestations were conducted 7 and 14 days after seed planting, respectively. For each infestation, approximately 10 larvae were transferred to 0.5 ml microcentrifuge tube and released into soil via dropping the tube with the open mouth facing down into straws inserted when the pots were filled with soil. […]
The fresh weight for each whole seedling was measured using a scale and recorded.

A further data set deals with fall army worms (FAW). Put plainly: Corn seedling root application, fall army worm infestation. It is filed as in vivo. The settings on record: for plant mass / fresh weight: in vivo; for FAW mortality: two days post-infestation. The protocol:
Two hundred corn seeds of the MBS Hybrid line are sterilized in 15% bleach sterilization solution by placing 50 seeds each in 4 separate 50 mL Falcon tubes and adding 25 mL sterilization solution into each tube. The tubes containing seeds are shaken on an orbital shaker at low speed for 15 min, after which the seeds are rinsed 3 times with sterile MilliQ water in the biological safety cabinet to ensure sterility. Six seeds are then selected from each tube and placed into CYG germination pouches (PhytoAB ca #CYG-38 LB) with 50 ml of sterile DI water. Seeds are allowed to germinate in the dark for 3 days at 25° C. and 60% relative humidity. After 3 days seedlings are moved to climate-controlled chambers with a light: dark cycle of 16:8 at 25° C. and 60% RH. At this time 25 ml of treatment solutions suspended in Hoagland's solution (Sigma-Alderich H2395-1L, 1.3 g/L, pH 6.5) are added to germination pouches. […] Seedlings are allowed to grow and uptake solution for 3 days before FAW infestation.
Six-day-old plants are infested with non-diapausing FAW at a rate of two 2nd instar larvae per plant. […] Before infestation germination pouches are sealed to prevent FAW from making direct contact with nutrient and NLP solutions. FAW are then allowed to feed on plants for a duration of 2 days in a Percival incubator (25° C., 50% RH, 16:8 Light: dark cycle).
FAW mortality is scored two days post-infestation by removing larvae from plants and probing 3 times. Larvae that are unresponsive to probing or not recovered are considered dead and the proportion of surviving larvae over initial infestation numbers are compared across treatments. Plant mass is also recorded by weighing individual seedlings after larvae are removed and average mass of seedlings are compared across treatments.

For data set [2], the system named is Colorado Potato Beetle (CPB). Put plainly: Tomato seedling root uptake assay followed by CPB infestation. The settings on record: 160 ug/ml in DCM.
For data set [3], the system named is WCRW. Kind of data set: Field-scale in-furrow treatment, open field trial (Example 53). It is filed as in vivo, western corn rootworm (WCRW). The settings on record: 2 mg/ml.
A short description of data set [4]: UV stability assay of deltamethrin in NLPs. The format is physicochemical. The text has this: In addition, the four NLP formulations were also mixed with lignosulfonate (Borresperse NA, Borregaard), a widely used UV absorption agent at 3% final concentration, ten samples were exposed to UV light, and ten represented control samples that were not exposed to UV light.
For the samples to be exposed to UV exposure, the cap of the Eppendorf tube was removed, and a single layer of Saran wrap (SC Johnson) was pulled across the top and secured with a rubber band. For the control samples, the Eppendorf tube was capped and wrapped entirely in aluminum foil to completely block UV radiation.
All samples were placed 15 cm below the UV light (Hortilux PowerVEG Full Spectrum with UV Bulb, Growershouse, Cat #901678) with the UV radiation intensity at round 150 milliwatts per square centimeter (mW/cm^2). For each treatment, two samples were analyzed by LC-MS at t=0 (immediately after preparation), at day 1, day 2, day 3, and day 6. For each timepoint two UV samples and 2 control samples were removed for analysis by LC-MS/MS. Prior to analysis, the samples were diluted to 1 ml with methanol in the original 2 mL Eppendorf tubes. A further 100× dilution was performed in methanol and the samples were transferred to HPLC vials for analysis by LC-MS.

For the next data set, the system named is Tomato Horn Worm (THW). Kind of data set: Tomato seedling root uptake assay followed by THW infestation. The following applies: in vivo. The protocol:
Tomato seeds (N=14) were germinated and grown on a precut mesh (0.08″×0.025″ Opening; Mcmaster-Carr, Cat #1100T45) in 20 ml 0.5×MS media ([…] filtered without sucrose added) in a deep petri dish (100 mm×25 mm). The petri dishes were placed in a plastic container (236 Oz) with holes on both sides of the container and 100 ml MilliQ water to maintain high humidity. The plastic containers with plants were placed in a Percival incubator (25° C., 50% relative humidity).
After 10 days, the mesh along with the seedlings on it was moved from the petri dish containing 0.5×MS media and excess media on mesh was dried by damping the roots on paper towels. The seedlings on the mesh were placed in a new deep petri dish containing formulation solution (20 ml) in the same large plastic container and Percival incubator. […] After 3 days, the mesh with seedlings was taken out of petri dish and the roots were washed with MilliQ water 2 times and placed on a paper towel to blot off excess water. […]
Five THW larvae were placed on the tomato seedlings on mesh in each petri dish and the petri dish was placed in a large plastic container (101 Oz). The insect mortality was scored after 2 days, and the mortality was normalized against negative control (water treatment) to calculate the % larval control.

A further data set concerns Fusarium oxysporum. Put plainly: Resazurin based Fusarium inhibition assay. The format is cell-based. The settings on record: 24 hr incubation, compared to negative controls (DMSO). As for the experimental part: The purpose of this assay was to quantify the effect of encapsulation of AZO, an antifungal agent, in NLP particles on its efficacy against a fungal pathogen (e.g., Fusarium oxysporum). Encapsulated AZO was compared to unencapsulated counterparts to determine if there is any change in efficacy. Formulations were tested in a 96-well plate and incubated with F. oxysporum conidia (spores) for 24 hr, after which resazurin dye was added. After 4 hr of incubation the color change of resazurin from blue to a fluorescent pink due to fungal respiration was assessed spectrophotometrically and the percent inhibition of respiration, as a measure of fungal growth, was determined by comparison to a conidia-only negative control. […] Fusarium oxysporum was cultured on 50% potato dextrose broth (PDB) agar plates. Using a pipette tip, a small mycelium aliquot was transferred to a 50-mL flask containing carboyxymethyl cellulose medium (CMC). […] Conidia were counted in the resuspended pellet using a hemocytometer, and diluted to 1×10^6 conidia/mL in 20% glycerol solution, from which a 1×10^5 conidia/mL working solution was prepared. […] After 24 h, 10 μL of PrestoBlue reagent was added to each well of the plate, followed by 4 h incubation, after which the fluorescence was read at 570/620 nm with a read height of 7 mm.
(In general: Resazurin is reduced to fluorescent resorufin, in cell work by metabolically active cells.)

A further data set relates to whiteflies. Kind of data set: Tomato seedling root treatment, whitefly exposure. The format is in vivo. The following applies: after 7 days. As for the experimental part:
Tomato seeds (N=14) are germinated and grown on a precut mesh (0.08″×0.025″ Opening; Mcmaster-Carr, Cat #1100T45) in 20 ml ½ MS media ([…] filtered without sucrose added) in a deep petri dish (100 mm×25 mm). The petri dishes are placed in a large plastic container (Sistema; 236 Oz) with holes on both sides of the container and 100 ml MilliQ water to maintain high humidity. Large plastic containers are placed in a Percival incubator (25° C., 50% RH). After 10 days, the mesh along with the seedlings on it is moved from the petri dish containing half strength MS media, and excess media on mesh is dried by blotting the roots on paper towels. […] After 3 days, the mesh with seedlings is taken out of petri dish and the roots are washed with MilliQ water 2 times and placed on a paper towel to blot off excess water. The mesh with tomato seedlings is transferred to a new petri dish with 25 ml of 1% phytogel (P8169-1 KG, Sigma-Aldrich).
From a whitefly infested plant in a rearing cage, leaves that are infested with about 200 white flies are excised using scissors and placed in a petri dish. The petri dish is placed at the base of the tomato plants on the phytagel taking care to not damage the tomato plant roots. The boxes with the tomato plant and the whiteflies are placed in an incubator with 16 h light/8 hr dark photoperiod, 26° C. and 50% humidity. […]

In another data set the test system is tomato hornworm (THW). Kind of data set: Tomato seed priming, tomato hornworm infestation. It is filed as in vivo. The following applies: seed priming 24 hr. The protocol: Tomato seeds are surface-sterilized by 1 ml 25% Bleach with 0.025% Triton X-100 in 1.5 ml centrifuge tube, then washed 3 times with 1 ml sterile water. Tomato seeds (N=50) are primed in 0.3 ml of below treatment solutions in a 1.5 ml centrifuge tube for 24 hr.
The primed tomato seeds (N=14) are germinated and grown on a precut mesh (0.08″×0.025″ Opening; Mcmaster-Carr) in 20 ml half strength Murashige and Skoog Basal Medium (MP Bio, Cat #0926231—CF) in a deep petri dish (100 mm×25 mm). The petri dishes are placed in large plastic container (236 Oz) with holes on both sides of the container and 100 ml MilliQ water to maintain high humidity. The containers are placed in a Percival incubator (about 25° C., 50% relative humidity). After 10 days, the mesh along with the seedlings on it is moved from the petri dish containing half strength MS media and excess media on mesh is dried by damping the roots on paper towels. After 3 days, the mesh with seedlings is removed from the petri dish and the roots are washed twice with MilliQ water and placed on paper towel to blot off excess water. The mesh with tomato seedlings is transferred to a new petri dish with 25 ml of 1% Phytagel (P8169-1 KG, Sigma-Aldrich). […]
The insect mortality is scored after 2 days, and the mortality is normalized against negative control (water treatment) to calculate the % larval control.

Consider `CC1(C)[C@H](C(=O)O[C@H](C#N)c2cccc(Oc3ccccc3)c2)[C@@H]1C=C(Br)Br` [Deltamethrin], for which the “protection of whole plant mass and root mass from WCRW” value in the data set on WCRW [1] was “less effective in protecting whole plant mass”. Moreover, in the data set with fall army worms (FAW), the “plant mass / fresh weight” value is listed as “fresh weight comparable to the water treated plants” and the FAW mortality entry is given as “none or very low mortality”. Besides, the “phytotoxicity to tomato seedlings” value in data set [2] is given as “caused phytotoxicity to the tomato seedlings”. Besides, in the data set on WCRW [3], the “root injury rating (0 to 3)” value was “higher root damage than the NLP644 comprising deltamethrin at 2 mg/ml treatment”. Besides, the “Repeat 1 (deltamethrin concentration)” value in [4] (Repeat 1, initial concentration, LC-MS) is 104 µg/mL. For the same molecule, the “Repeat 2 (deltamethrin concentration)” value in [4] (Repeat 2, initial concentration, LC-MS) turned out to be 114 µg/mL. Also, the “deltamethrin retention rate (actual deltamethrin/input deltamethrin)” value in data set [4] (after 6 days of UV exposure (figure legend)) is on record as 15%. The “Initial deltamethrin Concentration” value in data set [4] (mean of Repeat 1 and 2, LC-MS at t=0, before UV exposure) came to 109 µg/mL. For the same molecule, the phytotoxicity result in the data set on Tomato Horn Worm (THW) was “phytotoxicity (wilting and chlorosis of plant tissue)”.

Turning to `CO/C=C(/C(=O)OC)c1ccccc1Oc1cc(Oc2ccccc2C#N)ncn1` [azoxystrobin], the “minimum amount required for >90% inhibition of Fusarium” value with Fusarium oxysporum was 5 µg/mL.

As for `CN/C(=N\[N+](=O)[O-])NCc1cnc(Cl)s1` [clothianidin], the “number of live whiteflies” value in the data set with whiteflies was “significantly lower”. In addition, the “insect mortality and stunting” value with tomato hornworm (THW) is “significantly higher mortality and stunting”. In addition, in the data set on fall army worms (FAW), the “plant mass / fresh weight” value is recorded as “plant mass is the highest” and the FAW mortality result is recorded as “FAW mortality is the highest”.

Values taken from patent publication US20260223837A1, “NATURAL LIPID PARTICLE FORMULATIONS FOR AGRICULTURAL APPLICATIONS” (INVAIO SCIENCES, INC., priority 2023, published 2026).
